From patent US20260285853A1, “COMPOUNDS AND METHODS FOR MODULATING SPLICING” (REMIX THERAPEUTICS INC., priority 2023, published 2026)
Like-named read-outs stand apart in the source and are kept apart here.

Columns and labels:
Assay type in all cases: cell-based
[1] = test system: HTT mRNA; test: Splicing RT-qPCR assay (THP), Table 2A
[2] = test system: MYB mRNA; test: Splicing RT-qPCR assay (THP), Table 2A
[3] = test system: HTT mRNA; test: Gene panel canonical junction qPCR assay, decrease in CJ mRNA, Table 3
Method in brief: (§1)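 A673 (DMEM, 10% FBS, 15,000 cells/well) or K562 (IMDM, 10% FBS) cells treated 24 h at 37 °C with 11-point 3-fold dilutions, top 10 uM, DMSO ≤0.25%. Canonical exon-exon junction mRNA measured by RT-qPCR, normalized to GAPDH, GUSB or PPIA and DMSO (ΔΔCt); IC50 from 4-parameter logistic fit.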

[4] = test system: MYB mRNA; test: as above
Method in brief: as §1

[5] = test system: SH-SY5Y (human neuroblastoma) cells; test: Cell viability, Cell Titer Glo 2.0 assay; details: read-out: Viability SHSY5Y.3 GI50
Method in brief: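 Toxicity screen in SH-SY5Y cells. Compounds were serially diluted in DMSO and then in medium, giving 0.1% DMSO final. Viability was read with CellTiter-Glo 2.0 after 72 h at 37 °C, 5% CO2, against medium-only blank wells.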

[6] = Table 2A (THP), AJ mRNA increase, read-out: HTT AJ (increase in alternative junction mRNA, AC50)
[7] = Table 2A (THP), CJ mRNA decrease, read-out: HTT CJ (decrease in canonical junction mRNA, IC50)
[8] = Table 2A (THP), AJ mRNA increase, read-out: MYB AJ (increase in alternative junction mRNA, AC50)
[9] = Table 2A (THP), CJ mRNA decrease, read-out: MYB CJ (decrease in canonical junction mRNA, IC50)
[10] = decrease in canonical junction (CJ) mRNA, gene panel qPCR, Table 3
[11] = Table 2A, THP, HTT alternative junction (AJ) mRNA, read-out: HTT AJ (AC50, increase in alternative junction mRNA)
[12] = Table 2A, THP, HTT canonical junction (CJ) mRNA, read-out: HTT CJ (IC50, decrease in canonical junction mRNA)
[13] = Table 2A, THP, MYB alternative junction (AJ) mRNA, read-out: MYB AJ (AC50, increase in alternative junction mRNA)
[14] = Table 2A, THP, MYB canonical junction (CJ) mRNA, read-out: MYB CJ (IC50, decrease in canonical junction mRNA)
[15] = decrease in CJ mRNA levels, canonical junction qPCR, gene panel

| IC50 [1, 7] | IC50 [2, 9] | IC50 [3, 10] | IC50 [4, 10] | GI50 [5] | IC50 [1, 12] | IC50 [2, 14] | IC50 [3, 15] | IC50 [4, 15] | Compound | AC50 [1, 6] | AC50 [2, 8] | AC50 [1, 11] | AC50 [2, 13] |
| --- | --- | --- | --- | --- | --- | --- | --- | --- | --- | --- | --- | --- | --- |
| > 10000 nM | > 10000 nM | > 10000 nM | > 10000 nM | 1000 to 10000 nM | – | – | – | – | Cc1cn2cc(NC(=O)c3ccc(N4CCC(NC5CC5)CC4)c4cn(C)nc34)c(OC(C)C)c2c(C)n1 [Compound 569, 4-[4-(cyclopropylamino)-1-piperidyl]-N-(8-isopropoxy-1,3-dimethyl-pyrrolo[1,2-a]pyrazin-7-yl)-2-methyl-indazole-7-carboxamide] | > 10000 nM | > 10000 nM | – | – |
| 1000 to 10000 nM | < 100 nM | 1000 to 10000 nM | < 100 nM | 1000 to 10000 nM | – | – | – | – | Cc1cn2cc(NC(=O)c3c(F)cc(N4CCC(N)CC4)c4cn(C)nc34)nc2c(C)n1 [Compound 347, 4-(4-aminopiperidin-1-yl)-N-(6,8-dimethylimidazo[1,2-a]pyrazin-2-yl)-6-fluoro-2-methyl-2H-indazole-7-carboxamide 2,2,2-trifluoroacetate] | 1000 to 10000 nM | < 100 nM | – | – |
| – | – | – | – | 1000 to 10000 nM | 1000 to 10000 nM | 100 to 1000 nM | 1000 to 10000 nM | 100 to 1000 nM | Cn1cc2cc(NC(=O)c3ccc(N4CCC(NC5CC5)CC4)c4cn(C)nc34)cc(CNc3ncccn3)c2n1 [Compound 861, 4-[4-(cyclopropylamino)-1-piperidyl]-2-methyl-N-[2-methyl-7-[(pyrimidin-2-ylamino)methyl]indazol-5-yl]indazole-7-carboxamide] | – | – | > 10000 nM | 100 to 1000 nM |
| – | – | – | – | 1000 to 10000 nM | > 10000 nM | 1000 to 10000 nM | > 10000 nM | 1000 to 10000 nM | Cn1cc2cc(NC(=O)c3ccc(N4CCC(NC5CC5)CC4)c4cn(C)nc34)cc(Cn3nccn3)c2n1 [Compound 824] | – | – | > 10000 nM | 1000 to 10000 nM |
| – | – | – | – | 1000 to 10000 nM | 1000 to 10000 nM | 1000 to 10000 nM | 1000 to 10000 nM | 1000 to 10000 nM | COc1cc2nn(C)cc2cc1NC(=O)c1c(F)cc(N2CCC(NC3CC3)CC2)c2nc(C)sc12 [Compound 661, 4-[4-(cyclopropyl-amino)-1-piperidyl]-6-fluoro-N-(6-methoxy-2-methyl-indazol-5-yl)-2-methyl-1,3-benzothiazole-7-carboxamide] | – | – | 1000 to 10000 nM | 1000 to 10000 nM |
| 1000 to 10000 nM | 1000 to 10000 nM | 1000 to 10000 nM | 1000 to 10000 nM | 1000 to 10000 nM | – | – | – | – | COc1cc2nn(C)cc2cc1C#Cc1c(F)cc(N2CCC(NC3CC3)CC2)c2cn(C)nc12 [Compound 446, N-cyclo-propyl-1-[6-fluoro-7-[2-(6-methoxy-2-methyl-indazol-5-yl)-ethynyl]-2-methyl-indazol-4-yl]-piperidin-4-amine] | > 10000 nM | > 10000 nM | – | – |
| > 10000 nM | 1000 to 10000 nM | > 10000 nM | 1000 to 10000 nM | > 10000 nM | – | – | – | – | Cc1cn2cc(NC(=O)c3ccc(N4C[C@H](C)N[C@@H](C)C4)c4cn(C)nc34)nc2c(C)n1 [Compound 549] | > 10000 nM | 1000 to 10000 nM | – | – |
| – | – | – | – | < 100 nM | 100 to 1000 nM | < 100 nM | 100 to 1000 nM | < 100 nM | COc1nc2c(C(=O)Nc3cc(F)c4nc(C)cn4c3)ccc(N3C[C@H](C)N[C@@H](C)C3)c2s1 [Compound 705, 7-[(3S,5S)-3,5-dimethylpiperazin-1-yl]-N-(8-fluoro-2-methyl-imidazo[1,2-a]pyridin-6-yl)-2-methoxy-1,3-benzothiazole-4-carboxamide] | – | – | 100 to 1000 nM | < 100 nM |
| > 10000 nM | > 10000 nM | > 10000 nM | > 10000 nM | > 10000 nM | – | – | – | – | CNC1CCN(c2ccc(NC(=O)c3cc4cc(C)nn4cc3OC)c3nn(C)cc23)CC1 [Compound 520, 6-methoxy-2-methyl-N-[2-methyl-4-[4-(methyamino)-1-piperidyl]indazol-7-yl]-pyrazolo[1,5-a] pyridine-5-carboxamide] | > 10000 nM | > 10000 nM | – | – |
| – | – | – | – | 100 to 1000 nM | 1000 to 10000 nM | 100 to 1000 nM | 1000 to 10000 nM | 100 to 1000 nM | COc1nc2c(C(=O)Nc3cc(F)c4nn(C)cc4c3)ccc(N3CCNC(C)C3C)c2s1 (stereo not drawn) [Compound 771, 7-(2,3-dimethylpiperazin-1-yl)-N-(7-fluoro-2-methyl-indazol-5-yl)-2-methoxy-1,3-benzothiazole-4-carboxamide] | – | – | > 10000 nM | 100 to 1000 nM |
| – | – | – | – | 1000 to 10000 nM | 1000 to 10000 nM | 100 to 1000 nM | 1000 to 10000 nM | 100 to 1000 nM | COc1cc2c(N3CCC(NC4CC4)CC3)ccc(C(=O)Nc3cc(CNS(C)(=O)=O)c4nn(C)cc4c3)n2n1 [Compound 821] | – | – | > 10000 nM | 100 to 1000 nM |
| – | – | – | – | 100 to 1000 nM | 1000 to 10000 nM | < 100 nM | 1000 to 10000 nM | < 100 nM | COc1nc2c(C(=O)Nc3cc(F)c4nn(C)cc4c3)ccc(N3C[C@H](C)N(C)[C@@H](C)C3)c2s1 [Compound 767, N-(7-fluoro-2-methyl-indazol-5-yl)-2-methoxy-7-[(3S,5S)-3,4,5-trimethylpiperazin-1-yl]-1,3-benzothiazole-4-carboxamide] | – | – | 1000 to 10000 nM | < 100 nM |
| – | – | – | – | 1000 to 10000 nM | 1000 to 10000 nM | 100 to 1000 nM | 1000 to 10000 nM | 100 to 1000 nM | Cc1cn2cc(NC(=O)c3ccc(N4C[C@@H](C)N[C@@H](C)C4)c4c3OCO4)cc(F)c2n1 [Compound 643, 7-[(3S,5R)-3,5-dimethylpiperazin-1-yl]-N-(8-fluoro-2-methyl-imidazo[1,2-a]pyridin-6-yl)-1,3-benzodioxole-4-carboxamide] | – | – | 1000 to 10000 nM | 100 to 1000 nM |
| 100 to 1000 nM | 100 to 1000 nM | 100 to 1000 nM | 100 to 1000 nM | 100 to 1000 nM | – | – | – | – | COc1cc2nn(C)cc2cc1NC(=O)c1ccc(N2CCN(C3CNC3)CC2)c2cn(C)nc12 [Compound 544] | 100 to 1000 nM | 100 to 1000 nM | – | – |
| – | – | – | – | 100 to 1000 nM | 1000 to 10000 nM | < 100 nM | 1000 to 10000 nM | < 100 nM | COc1nc2c(C(=O)Nc3cc(F)c4nn(C)cc4c3)ccc(N3C[C@@H](C)N(C)[C@@H](C)C3)c2s1 [Compound 744, N-(7-fluoro-2-methyl-indazol-5-yl)-2-methoxy-7-[(3R,5S)-3,4,5-trimethylpiperazin-1-yl]-1,3-benzothiazole-4-carboxamide] | – | – | 100 to 1000 nM | < 100 nM |
| – | – | – | – | 100 to 1000 nM | 1000 to 10000 nM | 100 to 1000 nM | 1000 to 10000 nM | 100 to 1000 nM | Cc1nc2c(F)cc(NC(=O)c3ccc(N4CCC(NC5CC5)CC4)c4cn(C)nc34)cn2n1 [Compound 755, 4-[4-(cyclopropylamino)-1-piperidyl]-N-(8-fluoro-2-methyl-[1,2,4]triazolo[1,5-a]pyridin-6-yl)-2-methyl-indazole-7-carboxamide] | – | – | 1000 to 10000 nM | < 100 nM |
| 1000 to 10000 nM | 100 to 1000 nM | 1000 to 10000 nM | 100 to 1000 nM | 100 to 1000 nM | – | – | – | – | Cc1cn2cc(NC(=O)c3c(F)cc(N4CCC(NC5CC5)CC4)c4cn(C)nc34)cc(Oc3ccccn3)c2n1 [Compound 399] | 1000 to 10000 nM | < 100 nM | – | – |
| – | – | – | – | 1000 to 10000 nM | > 10000 nM | 1000 to 10000 nM | > 10000 nM | 1000 to 10000 nM | Cn1cc2cc(NC(=O)c3ccc(N4CCC(NC5CC5)CC4)c4cn(C)nc34)cc(CNc3ncco3)c2n1 [Compound 880] | – | – | > 10000 nM | 1000 to 10000 nM |
| – | – | – | – | > 10000 nM | > 10000 nM | > 10000 nM | > 10000 nM | > 10000 nM | CCNC1CCN(c2ccc(C(=O)Nc3cc(CCc4nnc[nH]4)c4nn(C)cc4c3)c3nn(C)cc23)CC1 [Compound 878] | – | – | > 10000 nM | > 10000 nM |
| – | – | – | – | 1000 to 10000 nM | 1000 to 10000 nM | 1000 to 10000 nM | 1000 to 10000 nM | 1000 to 10000 nM | Cc1cn2cc(NC(=O)c3ccc(N(C)C)c4cn(C)nc34)nc2c(CNS(C)(=O)=O)n1 [Compound 792] | – | – | 1000 to 10000 nM | 1000 to 10000 nM |
| > 10000 nM | 100 to 1000 nM | > 10000 nM | 100 to 1000 nM | 1000 to 10000 nM | – | – | – | – | COc1cc2nn(C)cc2cc1NC(=O)c1ccc(N2CCNC(C)CC2)c2cn(C)nc12 (stereo not drawn) [Compound 546] | > 10000 nM | 100 to 1000 nM | – | – |
